The values below come from patent US20010044151A1, “Ligands for modulating the expression of exogenous genes via an ecdysone receptor complex” (priority 1998, published 2001).

The target of the assay is T1, VgEcR and RXR heterodimeric receptor (pVgRXR) with pIND/luc in CHO cells (Drosophila melanogaster, UniProt P34021, E282G/G283S/G286V).
T1 construct: host or cells: CHO cells (ATCC CCL-61), transiently transfected or stably transformed with pVgRXR
T1 sequence (P34021 1-878 E282G/G283S/G286V): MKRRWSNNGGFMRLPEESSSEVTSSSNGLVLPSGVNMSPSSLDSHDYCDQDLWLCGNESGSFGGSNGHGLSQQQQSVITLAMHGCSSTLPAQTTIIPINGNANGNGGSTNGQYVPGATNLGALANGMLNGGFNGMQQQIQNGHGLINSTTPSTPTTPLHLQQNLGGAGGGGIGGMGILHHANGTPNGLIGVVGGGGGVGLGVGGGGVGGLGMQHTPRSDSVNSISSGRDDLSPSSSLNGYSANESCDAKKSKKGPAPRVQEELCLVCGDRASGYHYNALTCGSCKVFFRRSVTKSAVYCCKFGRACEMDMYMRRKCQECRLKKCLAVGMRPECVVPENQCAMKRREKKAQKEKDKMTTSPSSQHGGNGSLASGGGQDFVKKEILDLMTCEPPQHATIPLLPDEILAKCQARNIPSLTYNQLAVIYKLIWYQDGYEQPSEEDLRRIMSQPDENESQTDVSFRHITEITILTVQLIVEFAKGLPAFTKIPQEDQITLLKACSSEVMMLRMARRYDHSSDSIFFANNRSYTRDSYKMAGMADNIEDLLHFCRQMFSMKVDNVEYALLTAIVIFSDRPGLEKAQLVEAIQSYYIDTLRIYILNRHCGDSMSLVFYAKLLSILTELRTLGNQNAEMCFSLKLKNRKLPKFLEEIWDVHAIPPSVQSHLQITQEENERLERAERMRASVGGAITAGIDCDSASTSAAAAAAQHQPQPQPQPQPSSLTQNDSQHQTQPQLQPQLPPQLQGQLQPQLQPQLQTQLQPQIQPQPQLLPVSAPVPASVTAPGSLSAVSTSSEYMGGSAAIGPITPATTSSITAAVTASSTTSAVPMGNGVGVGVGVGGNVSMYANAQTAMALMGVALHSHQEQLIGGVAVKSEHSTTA
T1 sequence (P19793 1-462 partner): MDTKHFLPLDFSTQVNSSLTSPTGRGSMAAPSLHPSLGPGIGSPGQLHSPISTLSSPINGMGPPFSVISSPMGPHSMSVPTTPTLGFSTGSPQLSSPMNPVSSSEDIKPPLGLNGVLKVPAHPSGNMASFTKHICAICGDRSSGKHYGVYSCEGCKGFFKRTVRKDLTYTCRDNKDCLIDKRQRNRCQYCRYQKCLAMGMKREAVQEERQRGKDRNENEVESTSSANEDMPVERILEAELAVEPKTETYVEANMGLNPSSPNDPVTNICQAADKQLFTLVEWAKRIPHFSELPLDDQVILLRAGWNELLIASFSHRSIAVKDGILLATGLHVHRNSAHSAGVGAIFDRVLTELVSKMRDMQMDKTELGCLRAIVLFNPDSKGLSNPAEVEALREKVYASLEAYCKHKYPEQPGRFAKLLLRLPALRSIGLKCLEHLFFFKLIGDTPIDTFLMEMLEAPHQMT
Nature of the assay: Luciferase gene activation in transiently transfected CHO cells. The settings on record: ligand 10 μM; for Luciferase activity: average of duplicate samples, no ligand = 42; for Induction Ratio (RLU in presence and absence of the ligand): luciferase. Format: cell-based. The source says:
pVgRXR (Invitrogen Corp., Carlsbad, Calif.) is an […] plasmid that expresses both VgEcR and RXR to form a modified heterodimeric nuclear receptor (see No, D., et. al., (1996) Proc. Natl. Acad. Sci. USA, 93, 3346-3351). The ecdysone receptor (VgEcR) is derived from the natural Drosophila ecdysone receptor and modified to contain the VP16 transactivation domain (see Cress, W. D., and Triezenberg, S. J. (1991), Science 251, 87-90; Sadowski, I., et. al (1988) Nature 335, 563-564; Triezenberg, S. J et. al., (1988), Genes Dev 2, 718-729; Triezenberg, S. J., et. al., (1988), Genes Dev 2, 730-742). RXR as the mammalian homologue of USP (ultraspiracle), the natural partner to the Drosophila ecdysone receptor (see Yao, T. -P., et. al., (1993), Nature 366, 476-479, Yao, T. -P., et. al., (1992), Cell 71, 63-72). The P-box region of the VgEcR DNA binding domain was modified to recognize the hybrid ecdysone response element that consists of one half-site from the gluccorticoid response element (see Umesono, K., and Evans, R. M. (1989), Cell 57, 1139-1146) and one half-site from the natural ecdysone response element. This hybrid response element reduces any possible interaction with the farsenoid X receptor that may bind the natural ecdysone responsive element (EcRE). The cytomegalovirus enhancer-promoter drives expression of VgEcR, and the Rous sarcoma virus promoter drives expression of RXR. The vector pIND (Invitrogen Corp) is a 5024 bp vector based on pcDNA3.1. It contains five hybrid E/GREs recognized by the modified ecdysone receptor expressed from pVgRXR and a minimal heat shock promoter (see Yao, T. P., et. al., (1993), Nature, 366, 476-479). pIND/lacZ (Invitrogen Crop.) is a 8170 bp plasmid that contains the β-galactosidase gene as a reporter enzyme. Cotransfection of pIND/lacZ and pVgRXR results in the induction of β-galactosidase expression upon addition of ecdysone agonists such as muristerone A. The reporter plasmid pIND/luc was constructed by subcloning the firefly luciferase gene from pGL3 (Promega/E1741) as a Nhe I-BamHI fragment into pIND, also digested with Nhe I and BamHI.
CHO cells (ATCC #CCL-61) were maintained by F-12 Nutrient mixture (Ham's media) (Gibco/BRL, 11765-054) supplemented with 10% fetal bovine serum, (FBS, complete medium; Gibco/BRL, 16000-036). These cells were maintained at 37° C. in 5% CO2 in 95% atmospheric air.
The CHO cells were seeded into 12-well tissue culture plates at a concentration of 0.5×10^5 cells per ml per well. The lipid Pfx-8 (Invitrogen, T930-18) was used to transiently transfect the ecdysone inducible expression system (Invitrogen catalog number K1000-01). The ecdysone inducible expression system consists of pVgRXR, encoding the receptor subunits, and pIND/lacZ or pIND/luc, containing the response element and a reporter gene encoding β-galactosidase or luciferase respectively. Twenty-four hours after seeding cells, the lipid/DNA solution was prepared by 0.5 mg/ml of VgRXR and 0.5 mg/ml pIND/lacZ or pIND/luc DNAs in sterile water. Thirty-six μl of Pfx-8 was diluted in a sterile 17×100 mm polystyrene tube containing 1.5 ml Opti-MEM medium (Gibco/BRL, 31985). Six μl of the plasmid DNA stock was mixed with 1.5 ml of Opti-MEM medium in another polystyrene tube. The DNA and the lipid solutions were combined to make 3 ml of transfection solution (enough for one set of triplicate samples). Cells were washed with phosphate buffered solution (PBS; Gibco/BRL, 14190-144) three times by aspirating medium from the cells. One ml transfection solution was added per well. Cells were incubated for four hours, and the transfection medium replaced with the same volume of complete medium. Cells were incubated for an additional 20 hours.
Stock solutions (10^−2 M) were prepared for muristerone A and the non-steroidal ligands of the present invention in ethanol and acetone respectively, and stored at −20° C. […]

Each structure is given as a SMILES string.

As to `Cc1cc(C)cc(C(=O)N(NC(=O)c2ccc3c(c2C)OCCO3)C(C)(C)C)c1` [Ligand 2], the Luciferase activity is 204 RLU; the “Induction Ratio (RLU in presence and absence of the ligand)” value (from here on “Induction Ratio”) was 5.
Taken in the same sequence, the figures for `CCc1c(OC)cccc1C(=O)NN(C(=O)c1cc(C)cc(C)c1)C(C)(C)C` [Ligand 5] were 313 RLU and 8.
On to `CCc1c(OC)cccc1C(=O)NN(C(=O)c1cc(Cl)cc(Cl)c1)C(C)(C)C` [Ligand 13], for which the Luciferase activity is reported as 226 RLU; the “Induction Ratio” value is reported as 5.
With `CC(C)(C)N(NC(=O)c1ccccc1)C(=O)c1ccccc1` [CE-2, 1,2-dibenzoyl-1-tert-butyl-hydrazine, reference compound], the Luciferase activity is 36 RLU; the “Induction Ratio” value turned out to be 1.
In the case of `CCc1c(OC)cccc1C(=O)NN(C(=O)c1cc(F)cc(F)c1)C(C)(C)C` [Ligand 4], the Luciferase activity is recorded as 251 RLU; the “Induction Ratio” value was determined as 6.
Taken in the same sequence, the figures for `CCc1ccc(C(=O)NN(C(=O)c2cc(C)cc(C)c2)C(C)(C)C)cc1` [CE-1, N-(4-ethylbenzoyl)-N′-(3,5-dimethylbenzoyl)-N′-tert-butyl-hydrazine, reference compound] were 89 RLU and 2.
On to `CCOc1cccc(C(=O)NN(C(=O)c2cc(C)cc(C)c2)C(C)(C)C)c1CC` [Ligand 12], for which the Luciferase activity is listed as 305 RLU; the “Induction Ratio” value was 7.
Taken in the same sequence, the figures for `COc1cccc(C(=O)NN(C(=O)c2cc(C)cc(C)c2)C(C)(C)C)c1C` [Ligand 3] were 324 RLU and 8.
Turning to `CC(C)CC[C@@H](O)[C@](C)(O)[C@H]1CC[C@@]2(O)C3=CC(=O)[C@]4(O)C[C@@H](O)[C@@H](O)C[C@]4(C)[C@H]3[C@H](O)C[C@]12C` [CE-3, muristerone A, reference compound], the Luciferase activity is on record as 316 RLU; the “Induction Ratio” value is recorded as 8.
In the case of `CC(C)CC[C@@H](O)[C@](C)(O)[C@H]1CC[C@@]2(O)C3=CC(=O)[C@@H]4C[C@@H](O)[C@@H](O)C[C@]4(C)[C@H]3CC[C@]12C` [CE-4, ponasterone A, reference compound], the Luciferase activity is 418 RLU; the “Induction Ratio” value was determined as 10.
Taken in the same sequence, the figures for `CCc1c(OC)cccc1C(=O)NN(C(=O)c1cccc(OC)c1)C(C)(C)C` [Ligand 1] were 275 RLU and 7.
